From article PMC5667636 (Antiviral Research, 2017)

Columns and labels:
[1] = system: neuraminidase (NA) of B/Yamagata-lineage viruses; type: biochemical, influenza B/Yamagata-lineage virus
[2] = system: neuraminidase (NA) of A(H3N2) viruses; type: biochemical, influenza A(H3N2) virus
[3] = system: neuraminidase (NA) of B/Victoria-lineage viruses; type: biochemical, influenza B/Victoria-lineage virus
[4] = system: neuraminidase (NA) of A(H1N1)pdm09 viruses; type: biochemical, influenza A(H1N1)pdm09 virus

Row | SMILES | inhibition phenotype in NAI assay (NI/RI/HRI) [1] | IC50 fold-change [2] [fold] | IC50 fold-change compared to reference median IC50 values [2] [fold] | inhibition phenotype in NAI assay (NI/RI/HRI) [2] | IC50 fold-change [3] | inhibition phenotype in NAI assay (NI/RI/HRI) [4]
1 | CCOC(=O)C1=C[C@@H](OC(CC)CC)[C@H](NC(C)=O)[C@@H](N)C1 [Oseltamivir, oseltamivir] | borderline RI | 87 | 87 |  |  | 
2 | [H]/N=C(\N)N[C@H]1C=C(C(=O)O)O[C@@H]([C@H](OC)[C@H](O)CO)[C@@H]1NC(C)=O [Laninamivir, laninamivir] |  |  |  | borderline NI |  | 
3 | CC(=O)N[C@H]1[C@H]([C@H](O)[C@H](O)CO)OC(C(=O)O)=C[C@@H]1N=C(N)N [Zanamivir, zanamivir] |  | 32 | 32 |  | 14–17 fold | borderline RI
